Test results: patent US20250197864A1, “LNCRNA TRANSCRIPTS IN MELANOMAGENESIS” (The Regents of the University of California, priority 2021, published 2025)

Tested on: gene expression in D04 melanoma cells
Test: RNA-Seq differential expression analysis (DESeq2)
Type: cell-based, human
Details: up-regulated list
Description: Total RNA was isolated using the RNeasy mini Kit (QIAGEN) following the manufacturer's protocol. Quality check for extracted RNA was done using 2100 Bioanalyzer (Agilent Technologies, USA) or Tapestation System (Agilent Technologies, USA). […] For samples used for identification of MAPK-responsive lncRNAs, paired-end, 101-bp sequencing was performed by Centrillion Genomic Services (Centrillion Biosciences, USA) on an Illumina HiSeq 2000. For DE gene analysis of ASO-transfected D04 samples, paired-end, 2×150-bp sequencing was performed by Genewiz (USA) on a Illumina HiSeq.
Sequence reads were aligned to the human genome (hg19) using TopHat (Version 2.0.11).
Differential expression (DE) analysis was done using DESeq2. Differentially expressed genes were defined by more than 1.5-fold changes (log 2 >0.58 or <−0.58) in expression with FDR<0.05. GO term analysis was done using DAVID Functional Annotation Clustering analysis.
To examine the biomolecular changes upon TRASH-inhibition in melanoma, D04 cells were treated with TRASH-ASOs (SEQ ID NO:15) and Control-ASOs and RNA was extracted and used for RNA-Seq. […] These GO terms consisted of genes encoding growth factors, tyrosine kinases, G protein coupled receptor subunits, and collagen subunits. Scatter plot diagram showing differential gene expression after TRASH-ASO treatment compared to Control-ASO treatment. (cut-off for significance was adjusted p-value <0.05). Data was obtained from RNA-Seq of D04 melanoma cells, treatment period was three days. (FIG. 5c)

GACTGGAGATAATTAA (gapmer, pattern not given here) [SEQ ID NO: 15, GapmeR ASO targeting AC004540.4 (TRASH), exon region of both isoforms; used for in vitro experiments]
log2FoldChange CSRNP1 (ENSG00000144655): 0.6637 | log2FoldChange MYH15 (ENSG00000144821): 1.163 | log2FoldChange PHLDB2 (ENSG00000144824): 0.8277 | log2FoldChange EAF2 (ENSG00000145088): 0.8471 | log2FoldChange ECE2 (ENSG00000145194): 0.8019 | log2FoldChange DDIT4L (ENSG00000145358): 0.9547 | log2FoldChange GFOD1 (ENSG00000145990): 0.6187 | log2FoldChange TRIM7 (ENSG00000146054): 0.7787 | log2FoldChange PM20D2 (ENSG00000146281): 0.6289 | log2FoldChange EGFR (ENSG00000146648): 0.8305 | log2FoldChange GCNA (ENSG00000147174): 0.8797 | log2FoldChange MAL2 (ENSG00000147676): 0.6498 | log2FoldChange RGS10 (ENSG00000148908): 0.5971 | log2FoldChange ST14 (ENSG00000149418): 1.17 | log2FoldChange PDCD4 (ENSG00000150593): 0.586 | log2FoldChange IL18 (ENSG00000150782): 0.6212 | log2FoldChange NOCT (ENSG00000151014): 0.6791 | log2FoldChange JMY (ENSG00000152409): 0.9323 | log2FoldChange NR4A2 (ENSG00000153234): 0.7664 | log2FoldChange CCDC148 (ENSG00000153237): 0.745 | log2FoldChange FAM167A (ENSG00000154319): 0.6771 | log2FoldChange LY96 (ENSG00000154589): 0.6345 | log2FoldChange HKDC1 (ENSG00000156510): 0.717 | log2FoldChange CD109 (ENSG00000156535): 0.6418 | log2FoldChange NRG1 (ENSG00000157168): 0.8358 | log2FoldChange WDR66 (ENSG00000158023): 1.174 | log2FoldChange TPRG1L (ENSG00000158109): 0.6032 | log2FoldChange XDH (ENSG00000158125): 0.6451 | log2FoldChange GDPD5 (ENSG00000158555): 0.6005 | log2FoldChange LAD1 (ENSG00000159166): 1.038 | log2FoldChange STC1 (ENSG00000159167): 0.8653 | log2FoldChange KLHL21 (ENSG00000162413): 0.8059 | log2FoldChange FBLIM1 (ENSG00000162458): 0.7967 | log2FoldChange ATF3 (ENSG00000162772): 0.6827 | log2FoldChange COQ8A (ENSG00000163050): 0.9489 | log2FoldChange CRYGC (ENSG00000163254): 1.014 | log2FoldChange PAQR3 (ENSG00000163291): 0.7134 | log2FoldChange KBTBD8 (ENSG00000163376): 1.017 | log2FoldChange IGFN1 (ENSG00000163395): 1.134 | log2FoldChange NKX6-1 (ENSG00000163623): 1.147 | log2FoldChange PLB1 (ENSG00000163803): 0.8869 | log2FoldChange LZTFL1 (ENSG00000163818): 0.6384 | log2FoldChange RAET1E (ENSG00000164520): 1.147 | log2FoldChange DAGLB (ENSG00000164535): 0.608 | log2FoldChange GPR85 (ENSG00000164604): 0.7923 | log2FoldChange SUN3 (ENSG00000164744): 0.9518 | log2FoldChange EN2 (ENSG00000164778): 1.028 | log2FoldChange FRAT1 (ENSG00000165879): 0.9146 | log2FoldChange GPR176 (ENSG00000166073): 0.7841 | log2FoldChange SVOP (ENSG00000166111): 1.178 | log2FoldChange C16orf71 (ENSG00000166246): 0.7026 | log2FoldChange C16orf46 (ENSG00000166455): 0.9764 | log2FoldChange GREM1 (ENSG00000166923): 1.047 | log2FoldChange CD3D (ENSG00000167286): 0.767 | log2FoldChange AXL (ENSG00000167601): 0.7701 | log2FoldChange DNAAF3 (ENSG00000167646): 0.6547 | log2FoldChange SERPINF2 (ENSG00000167711): 1.036 | log2FoldChange KRT80 (ENSG00000167767): 0.6697 | log2FoldChange ABCA3 (ENSG00000167972): 0.8489 | log2FoldChange CAVIN2 (ENSG00000168497): 1.053 | log2FoldChange IL12A (ENSG00000168811): 0.635 | log2FoldChange C8orf46 (ENSG00000169085): 0.7557 | log2FoldChange HSPB3 (ENSG00000169271): 0.6385 | log2FoldChange ZNF280A (ENSG00000169548): 0.9372 | log2FoldChange MT1E (ENSG00000169715): 0.8998 | log2FoldChange MZB1 (ENSG00000170476): 1.158 | log2FoldChange S1PR1 (ENSG00000170989): 0.6805 | log2FoldChange XAGE3 (ENSG00000171402): 0.6996 | log2FoldChange ZNF57 (ENSG00000171970): 0.6499 | log2FoldChange NIPAL4 (ENSG00000172548): 1.166 | log2FoldChange MUC13 (ENSG00000173702): 1.042 | log2FoldChange GOLT1A (ENSG00000174567): 0.9754 | log2FoldChange C11orf68 (ENSG00000175573): 0.673 | log2FoldChange TSPEAR (ENSG00000175894): 0.9662 | log2FoldChange ENTHD1 (ENSG00000176177): 0.5983 | log2FoldChange ZNF843 (ENSG00000176723): 0.9407 | log2FoldChange RIMKLA (ENSG00000177181): 0.711 | log2FoldChange JUN (ENSG00000177606): 0.715 | log2FoldChange ZNF619 (ENSG00000177873): 0.5884 | log2FoldChange ZNF114 (ENSG00000178150): 0.8507 | log2FoldChange KCTD12 (ENSG00000178695): 0.7298 | log2FoldChange FJX1 (ENSG00000179431): 0.6535 | log2FoldChange PLD6 (ENSG00000179598): 0.696 | log2FoldChange WDR97 (ENSG00000179698): 0.7195 | log2FoldChange B3GNT3 (ENSG00000179913): 0.7904 | log2FoldChange ANKRD18A (ENSG00000180071): 0.7649 | log2FoldChange OXTR (ENSG00000180914): 1.093
